These results are taken from paper PMC3479662 (Journal of medicinal chemistry, 2012).

Molecules are shown by their SMILES. pKi: −log10 of the molar value. Marks after values point to notes of the source that are not given here.

Assay [1] deals with T1, hA1AR (Homo sapiens, UniProt P30542).
T1 sequence (P30542 1-326): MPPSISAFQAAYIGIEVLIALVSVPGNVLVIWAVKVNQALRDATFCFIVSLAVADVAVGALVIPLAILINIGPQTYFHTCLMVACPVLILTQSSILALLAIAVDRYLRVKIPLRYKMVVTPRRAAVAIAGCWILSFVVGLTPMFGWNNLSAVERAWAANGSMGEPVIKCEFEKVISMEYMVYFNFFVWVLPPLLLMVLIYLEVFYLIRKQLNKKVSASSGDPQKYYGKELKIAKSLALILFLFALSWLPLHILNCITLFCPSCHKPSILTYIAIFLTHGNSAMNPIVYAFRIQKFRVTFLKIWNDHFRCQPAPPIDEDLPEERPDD
To be noted: for agonist character at the A1AR (full / partial agonist): cyclic AMP assay, hA1AR.

Assay [2] deals with T1, hA1AR. Kind of assay: Radioligand binding at hA1AR, [3H]R-PIA, membranes of CHO cells. To be noted: human orthologue more potent than rat.
Another assay has as its target A3AR. To be noted: read-out: Affinity Ki, A3; human unless noted; ref de Zwaart et al.[38]; cited from earlier work.
The subject of another assay is rat A2AAR. To be noted: ref Jacobson et al.[39]; cited from earlier work.
The next assay has as its system rat A1AR. To be noted: ref Jacobson et al.[39]; cited from earlier work.
In another assay the target is hA2AAR (Homo sapiens, UniProt P29274). Kind of assay: Stimulation of cyclic AMP production in A2AAR-expressing CHO cells. It counts as cell-based. To be noted: cyclic AMP assay.
Sequence of hA2AAR (P29274 whole entry): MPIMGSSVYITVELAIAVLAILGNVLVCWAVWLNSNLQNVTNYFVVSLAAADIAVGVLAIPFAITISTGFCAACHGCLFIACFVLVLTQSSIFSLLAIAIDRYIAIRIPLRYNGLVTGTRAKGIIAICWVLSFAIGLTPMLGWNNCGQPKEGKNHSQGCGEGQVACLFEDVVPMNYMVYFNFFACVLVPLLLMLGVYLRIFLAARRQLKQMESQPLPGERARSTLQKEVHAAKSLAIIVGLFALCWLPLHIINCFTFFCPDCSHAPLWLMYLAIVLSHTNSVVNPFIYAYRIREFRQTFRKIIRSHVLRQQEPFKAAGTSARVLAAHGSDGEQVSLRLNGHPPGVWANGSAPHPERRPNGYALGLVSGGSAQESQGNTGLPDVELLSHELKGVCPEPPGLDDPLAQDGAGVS

As for `CCNC(=O)[C@H]1O[C@@H](n2cnc3c(N)ncnc32)[C@H](O)[C@@H]1O` [Compound 1, 5′-N-ethylcarboxamidoadenosine, reference compound], at hA1AR [1] (single point at 10 μM, effect of full agonist 1 = 100%, hA1AR CHO cells), the “Activation of A1, % of 1, 10 μM” value is listed as 100 % of 1.

Turning to `Nc1ncnc2c1ncn2[C@@H]1O[C@H](C(=O)NCC(F)(F)F)[C@@H](O)[C@H]1O` [Compound 5], the “agonist character at the A1AR (full / partial agonist)” value at hA1AR [1] was “partial agonists”. Moreover, the “difference between rat and human A1AR binding affinities” value on hA1AR [2] is reported as “approximately 100 fold”.

As for `Nc1ncnc2c1ncn2[C@@H]1O[C@H](C(=O)NCCCl)[C@@H](O)[C@H]1O` [Compound 6, reference compound], the pKi (as a rule, the Ki on a negative log10 scale, so that one unit is a factor of ten) at A3AR was 6.48.

For the compound `NCCNC(=O)[C@H]1O[C@@H](n2cnc3c(N)ncnc32)[C@H](O)[C@@H]1O` [Compound 11], the “% inhibition, A2A (rat)” value with rat A2AAR is recorded as over 10%. The “% inhibition, A1 (rat)” value in the assay with rat A1AR is “(>10%, rat) ^e”.

For the compound `Nc1ncnc2c1ncn2[C@@H]1O[C@H](C(=O)NC2CC2)[C@@H](O)[C@H]1O` [Compound 16, reference compound], the “agonist character at the A2AAR (full agonist)” value on hA2AAR was “full agonists”. Further, at hA1AR [1], the “agonist character at the A1AR (full / partial agonist)” value is listed as “full agonists”.

For the compound `Nc1ncnc2c1ncn2[C@@H]1O[C@H](C(=O)NC2CCC2)[C@@H](O)[C@H]1O` [Compound 18], the “agonist character at the A2AAR (full agonist)” value at hA2AAR is reported as “full agonists”. Moreover, on hA1AR [1], the “agonist character at the A1AR (full / partial agonist)” value is recorded as “partial agonist”. On A3AR, the pKi is 7.64.

In the case of `Nc1ncnc2c1ncn2[C@@H]1O[C@H](C(=O)NC2CCCC2)[C@@H](O)[C@H]1O` [Compound 22], the “agonist character at the A1AR (full / partial agonist)” value on hA1AR [1] was “full agonists”. Besides, the pKi at A3AR is 7.49.
